“Also recorded” adds a separate entry of the source.
Tests used:
[1] = system: LPS/IFN-γ-activated RAW 264.7 gamma NO(−) macrophages; test: Inhibition of nitric oxide production (nitrite, Griess reaction) in activated macrophages; type: cell-based, mouse; settings: for Nitrite: 24 h after LPS/IFN-γ; for inhibition at 63 µM: RAW264.7, 63 μM (μM GAE for juices); for inhibition at 125 µM: RAW264.7, 125 μM (μM GAE for juices); for inhibition at 250 µM: RAW264.7, 250 μM (μM GAE for juices); for inhibition at 500 µM: RAW264.7, 500 μM (μM GAE for juices); for Effect on NO production, in words: over the tested concentrations
Procedure: Cell culture. The mouse monocyte/macrophage cell line RAW 264.7 gamma NO(−) [American Type Culture Collection (ATCC)] was cultured in RPMI-1640 supplemented with 10% (v/v) heat-inactivated FBS, streptomycin ([…]) and penicillin (100 units/ml). All cultures were incubated at 37° C. in a humidified atmosphere with 5% CO2. Cell number was assessed by trypan blue dye exclusion on a Neubauer hemacytometer. Cells were grown to 90% confluence in sterile cell culture flasks and gently detached using a scraper (Fisher Scientific). For phenolic compound treatment tests, cells were cultured in triplicate in Costar flat-bottom cell culture plates (Corning Inc.). Cells were plated at a density of 6×10^5 cells/well in 24-well cell culture plates and grown for 1 h to allow them to attach to the plate. Compounds to be tested were initially dissolved in 10 μl of DMSO, and then RPMI was added to make solutions in a series of concentrations with a dilution factor of 2. The final concentrations of test compound that cells received were 16, 31, 63, 125, 250, and 500 μM, respectively. For berry juices, the final concentrations were 16, 31, 63, 125, 250 and 500 μM GAE, respectively. Cells were supplemented with the test compounds for 1 h before stimulation with 10 ng/ml lipopolysaccharide (LPS) and 10-50 units/ml interferon gamma (IFN-γ). The activated cells were incubated for 24 h and then supernatants were collected to determine nitrite concentration and/or stored at −80° C. for further use. Control cells were grown under identical conditions but were not exposed to the test compounds or LPS/IFN-γ.
Nitric Oxide (NO) Determination. Nitrite concentration was used as an indication of NO production. The procedure for NO determination was based on the Griess reaction. The assay was assessed as in the methods of Wang and Mazza (2002a, 2002b) for cell supernatants supplemented with phenolic compounds or berry juices. In brief, 100 μL of cell culture supernatant or sodium nitrite standard was mixed with an equal volume of Griess reagent [a mixture of 0.1% (w/v) N-(1-naphthyl)-ethylenediamine dihydrochloride and 1% (w/v) sulfanilamide in 5% (v/v) phosphoric acid, the two parts being mixed together within 1 h of use] using a 96-well plate. A set of parallel analyses was also conducted by applying only 100 μL of 2.5% (v/v) phosphoric acid instead of Griess reagent to each of 100 μL of cell supernatants or the mixture of standard sodium nitrite and cyanidin chloride. After 20 min at room temperature, the absorbance at 540 nm was measured using the microtitration reader. The net absorbance of the product of the Griess reaction was obtained by subtracting that of anthocyanins from the total. The absorbance was referred to a nitrite standard curve to determine the nitrite concentration in the supernatants.
Inhibition of Nitric Oxide Production. RAW 264.7 gamma NO(−) cell line was derived from the RAW 264.7 mouse monocyte/macrophage cell line. […] When LPS/IFN-γ was administered to RAW 264.7 gamma (NO−) macrophages, NO production, measured as nitrite, increased dramatically from the basal level of 0 to ≧30 μM after 24 h. To determine the effects of cranberry and blueberry juice and other phenolic compounds on NO production, different concentrations of these compounds (500, 250, 125, 63, and 16 μM) were incubated with the LPS/IFN-γ-activated macrophages (Table 7). Cell viability was assayed to exclude the possibility that the inhibitory effects of phenolic compounds were due to their cytotoxicity. The MTT assay was used for the colorless phenolic compound-treated macrophages, whereas the resazurin assay was used for cranberry and blueberry juice-treated macrophages. […]

[2] = reference phenolic compounds, Fukumoto and Mazza (2000); cited from earlier work
[3] = Mus musculus, read-out: Inhibitory effect (decrease of NO production)

| SMILES | Nitrite ([1]; 16 μM (μM GAE for juices)) | Nitrite ([1]; 31 μM (μM GAE for juices)) | Nitrite ([1]; 63 μM (μM GAE for juices)) | Nitrite ([1]; 125 μM (μM GAE for juices)) | Nitrite ([1]; 250 μM (μM GAE for juices)) | Nitrite ([1]; 500 μM (μM GAE for juices)) | Inhibitory effect (decrease of NO production) ([1]; 500 μM (μM GAE for juices), 500 µM) | inhibition at 63 µM [1, 3] | inhibition at 125 µM [1, 3] | inhibition at 250 µM [1, 3] | inhibition at 500 µM [1, 3] | Effect on NO production, in words [1] | Antiradical activity [2] | Antiradical power [2] | inhibition at 16 µM ([1]; Mus musculus, RAW264.7, 16 μM (μM GAE for juices), read-out: Inhibitory effect (decrease of NO production)) | inhibition at 31 µM ([1]; Mus musculus, RAW264.7, 31 μM (μM GAE for juices), read-out: Inhibitory effect (decrease of NO production)) |
| --- | --- | --- | --- | --- | --- | --- | --- | --- | --- | --- | --- | --- | --- | --- | --- | --- |
| O=C(O)c1cc(O)c(O)c(O)c1 [Gallic acid] | 36.2 (3.7) μM | 35.4 (2.9) μM | 29.3 (0.3) μM | 31.1 (5.9) μM | 25.2 (1.5) μM | 22.6 (0.6) μM | 30.9 (1.9) % | 10.5% | 19% | 23% | 30% | dose-dependent | −6.21 (0.60) | 12.50 |  |  |
| O=C(/C=C/c1ccc(O)c(O)c1)O[C@@H]1C[C@](O)(C(=O)O)C[C@@H](O)[C@H]1O [Chlorogenic acid] | 37.1 (0.4) μM | 39 (1) μM | 40.4 (1.64) μM | 41.7 (1.7) μM | 47.6 (1.4) μM | 46.6 (1.5) μM |  | -19.5% | -23.4% | -40.8% | -37.9% | showed no inhibitory effects; also recorded: induced production of NO |  |  | -9.6% | -15.2% |
